Data from article PMC4335062, “Data-Driven Prediction and Design of bZIP Coiled-Coil Interactions” (PLoS Computational Biology, 2015).
Where two headings read alike, the source gives them in different places. Where no end group is shown, it is not given here.

Experiments:
Test in all cases: Direct-binding FRET assay
MAFF = target: T1, MAFF (Homo sapiens, UniProt Q9ULX9)
T1 construct: made in house
T1 sequence (Q9ULX9 51-114 limits assumed): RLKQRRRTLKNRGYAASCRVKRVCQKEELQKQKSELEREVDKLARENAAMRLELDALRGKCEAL
Method: (§1) The direct binding assay was performed manually in 384-well plates and is similar to a previously described assay. Wells were filled with 20 μL of 1 mM TCEP-HCl. A 4 μM stock of acceptor protein was made fresh in 1 mM TCEP-HCl, and 20 μL was titrated in 2-fold dilutions over the wells. […] The direct-binding FRET data were fit as previously described. Briefly, the Kd of the designed peptide homodimer was experimentally determined and used with previously determined target homodimer Kd values to determine the heterodimer Kd. The homodimer Kd values used for the human bZIPs were from; experiments done by […] et al. used the same protein constructs for the human bZIP proteins, the same buffer conditions, and the same assay. The fitting used a system of ordinary differential equations to describe the concentrations of homo and heterodimers formed by the donor (D) and acceptor (A) as a function of the heterodimer Kd. MATLAB was used to simulate the binding experiment for different Kd values, and the value that gave the best agreement between simulation and experiment was assigned. A minimum 15% change in the donor fluorescence upon titrating the acceptor peptide from 0 to 1000 nM was required for a fit to be attempted. If this minimum was not met, the interaction was classified as “NS” for no signal change. […] For such curves, we removed the first five points and re-fit the data.

ATF4 = target: T2, ATF4 (Homo sapiens, UniProt P18848); conditions: Kd
T2 construct: made in house
T2 sequence (P18848 278-341 limits assumed): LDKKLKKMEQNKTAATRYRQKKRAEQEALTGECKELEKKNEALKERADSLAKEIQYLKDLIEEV
Method: as §1

NFE2 = target: T3, NFE2 (Homo sapiens, UniProt Q16621)
T3 construct: made in house
T3 sequence (Q16621 266-329 limits assumed): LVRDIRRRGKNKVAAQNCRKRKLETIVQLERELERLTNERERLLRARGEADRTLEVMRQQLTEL
Method: as §1

ATF3 = target: T4, ATF3 (Homo sapiens, UniProt P18847)
T4 construct: made in house
T4 sequence (P18847 86-149 limits assumed): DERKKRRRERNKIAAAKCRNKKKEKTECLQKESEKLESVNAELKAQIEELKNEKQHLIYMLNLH
Method: as §1

NFE2L3 = target: T5, NFE2L3 (Homo sapiens, UniProt Q9Y4A8)
T5 construct: made in house
T5 sequence (Q9Y4A8 578-641 limits assumed): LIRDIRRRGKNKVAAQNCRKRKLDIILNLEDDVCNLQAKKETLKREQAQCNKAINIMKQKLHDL
Method: as §1

CREB1 = target: T6, CREB1 (Homo sapiens, UniProt P16220)
T6 construct: made in house
T6 sequence (P16220 269-327 limits assumed): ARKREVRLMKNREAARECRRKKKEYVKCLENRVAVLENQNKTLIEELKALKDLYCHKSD
Method: as §1

XBP1 = target: T7, XBP1 (Homo sapiens, UniProt P17861)
T7 construct: made in house
T7 sequence (P17861 70-133 limits assumed): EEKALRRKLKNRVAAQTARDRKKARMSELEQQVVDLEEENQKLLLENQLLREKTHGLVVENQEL
Method: as §1

ATF6B = ATF6B (Homo sapiens, UniProt Q99941); design: made in house; conditions: Kd
Method: as §1

MAFG = MAFG (Homo sapiens, UniProt O15525); design: made in house
Method: as §1

JUN = JUN (Homo sapiens, UniProt P05412); design: made in house; conditions: Kd
Method: as §1

FOS = FOS (Homo sapiens, UniProt P01100); design: made in house
Method: as §1

[1] = 4°C, C-terminal rhodamine design, repeat 1
[2] = 4°C, N-terminal rhodamine design, mean or single
[3] = 23°C, C-terminal rhodamine design, repeat 1
[4] = 23°C, N-terminal rhodamine design, mean or single
[5] = 37°C, N-terminal rhodamine design, mean or single
[6] = 23°C, C-terminal fluorescein design as donor, TAMRA target titrated
[7] = 37°C, C-terminal fluorescein design as donor, TAMRA target titrated
[8] = 4°C, C-terminal fluorescein design as donor, TAMRA target titrated

Sequence of FOS (P01100 137-200 limits assumed): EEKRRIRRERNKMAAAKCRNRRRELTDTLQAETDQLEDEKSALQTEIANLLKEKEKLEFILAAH
Sequence of ATF6B (Q99941 325-388 limits assumed): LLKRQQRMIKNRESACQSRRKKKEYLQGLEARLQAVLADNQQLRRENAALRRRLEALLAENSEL
Sequence of MAFG (O15525 51-114 limits assumed): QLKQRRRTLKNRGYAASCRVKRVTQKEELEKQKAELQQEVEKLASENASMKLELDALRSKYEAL

Sequence: SIAATLEKEEANLEKMNKKLAAEIESLLKEKDKLESVLNYHE [JUN-d1]
- Kd (MAFF): > 1000 nM
- Kd (MAFF; [1]): > 1000 nM
- Kd (MAFF; [2]): > 1000 nM
- Kd (MAFF; [3]): > 1000 nM
- Kd (MAFF; [4]): > 1000 nM
- Kd (MAFF; [5]): > 1000 nM
- Kd (ATF4; [2]): 592 nM
- Kd (ATF4; [6]): 40.1 nM
- Kd (ATF4; [4]): > 5000 nM
- Kd (ATF4; [7]): 441 nM
- Kd (ATF4; 37°C, C-terminal rhodamine design, mean or single): 543 nM
- Kd (ATF4; [5]): > 1000 nM
- Kd (NFE2): > 1000 nM
- Kd (NFE2; [8]): > 1000 nM
- Kd (NFE2; [1]): > 1000 nM
- Kd (NFE2; [2]): > 1000 nM
- Kd (NFE2; [6]): > 1000 nM
- Kd (NFE2; [3]): > 1000 nM
- Kd (NFE2; [4]): > 1000 nM
- Kd (NFE2; [7]): > 1000 nM
- Kd (NFE2; [5]): > 1000 nM
- Kd (ATF3): > 1000 nM
- Kd (ATF3; [8]): > 1000 nM
- Kd (ATF3; [2]): > 1000 nM
- Kd (ATF3; [6]): > 1000 nM
- Kd (ATF3; [3]): > 1000 nM
- Kd (ATF3; [4]): > 1000 nM
- Kd (ATF3; [7]): > 1000 nM
- Kd (ATF3; [5]): > 1000 nM
- Kd (NFE2L3): > 1000 nM
- Kd (NFE2L3; [1]): > 1000 nM
- Kd (NFE2L3; [2]): > 1000 nM
- Kd (NFE2L3; [3]): > 1000 nM
- Kd (NFE2L3; [4]): > 1000 nM
- Kd (NFE2L3; [5]): > 1000 nM
- Kd (CREB1): > 1000 nM
- Kd (CREB1; [8]): > 1000 nM
- Kd (CREB1; [1]): > 1000 nM
- Kd (CREB1; [2]): > 1000 nM
- Kd (CREB1; [6]): > 1000 nM
- Kd (CREB1; [3]): > 1000 nM
- Kd (CREB1; [4]): > 1000 nM
- Kd (CREB1; [7]): > 1000 nM
- Kd (CREB1; [5]): > 1000 nM
- Kd (XBP1): > 1000 nM
- Kd (XBP1; [1]): > 1000 nM
- Kd (XBP1; [2]): > 1000 nM
- Kd (XBP1; [3]): > 1000 nM
- Kd (XBP1; [4]): > 1000 nM
- Kd (XBP1; [5]): > 1000 nM
- Kd (ATF6B; [8]): 200 to 1000 nM
- Kd (ATF6B; [1]): > 1000 nM
- Kd (ATF6B; [2]): > 1000 nM
- Kd (ATF6B; [6]): > 1000 nM
- Kd (ATF6B; [3]): > 1000 nM
- Kd (ATF6B; [4]): > 1000 nM
- Kd (ATF6B; [7]): > 1000 nM
- Kd (ATF6B; 37°C, C-terminal rhodamine design, repeat 1): > 1000 nM
- Kd (ATF6B; [5]): > 1000 nM
- Kd (MAFG): > 1000 nM
- Kd (MAFG; [1]): > 1000 nM
- Kd (MAFG; [2]): > 1000 nM
- Kd (MAFG; [3]): > 1000 nM
- Kd (MAFG; [4]): > 1000 nM
- Kd (MAFG; [5]): > 1000 nM
- Kd (JUN; [8]): 2.1 nM
- Kd (JUN; 4°C, C-terminal rhodamine design, mean or single): 1 nM
- Kd (JUN; [7]): 16.1 nM
- Kd (FOS): > 1000 nM
- Kd (FOS; [8]): > 1000 nM
- Kd (FOS; [2]): > 1000 nM
- Kd (FOS; [6]): > 1000 nM
- Kd (FOS; [3]): > 1000 nM
- Kd (FOS; [4]): > 1000 nM
- Kd (FOS; [7]): > 1000 nM
- Kd (FOS; [5]): > 1000 nM
